Results reported in patent EP3782997A1, “FUSED PYRIMIDINE COMPOUNDS AND PHARMACEUTICAL COMPOSITIONS THEREOF FOR THE TREATMENT OF FIBROTIC DISEASES” (Galapagos N.V., priority 2019, dated 2021).

biological target: hENPP2 (Homo sapiens, UniProt Q13822); assay: Human ENPP2 (hENPP2) biochemical assay using LPC as substrate; details: 150 µM LPC (palmitoyl 16:0), 37°C for 30 min
Procedure: The principle of the assay conswasts in quantifying the released choline with an enzymatic method using choline oxidase and peroxidase. Choline oxydation by choline oxydase releases betaine and peroxide. The latter was quantified in presence of HRP that converts the peroxide detection agent TOOS (CAS# 82692-93-1) and 4-aminoantipyrine into quinoneimine dye. The appearance of quinoneimine dye was measured spectrophotometrically at 555 nm and was proportional to the amount of choline released by ENPP2. Inhibition of ENPP2 results in a decrease of the signal.
Compound IC50 values were determined in a hENPP2 (UniProtKB/SwwassProt Sequence ref Q13822) biochemical assay using LPC as substrate.
5 µL of a dilution series of compound, starting from 50 µM highest concentration, 1/3 dilution, was added to the wells. hENPP2 was used at a final concentration of 1 µg/mL or 3 µg/mL (it will be appreciated by the skilled person that the potency read out was independent of the enzyme concentration). The enzyme was diluted in 50 mM Trwas-HCl pH 8.5, 500 mM NaCl, 5 mM KCl, 10 mM CaCl2, 0.1% fatty acid free BSA in a total volume of 10 µL. The reaction was started by the addition of 10 µL of 150 µM LPC (palmitoyl 16:0; Avanti Polar Lipids, Inc., Cat# 855675) diluted in the same buffer as described above and the mixture was incubated at 37°C for 30 min. The reaction was terminated and choline quantified by the addition of a 25 µL of a mixture containing 0.6 U/mL of choline oxidase, 0.6 U/mL of peroxydase, 1.8 mM TOOS, 1.2 mM amino-antipyrine, 20 mM EGTA (stop-developer solution) diluted in the buffer described above. […] was read on an Envision plate reader (PerkinElmer, Inc.) after an incubation of 30 min at room temperature (excitation 555 nm).

SMILES | IC50
Cc1cc(C)cc(Nc2ncc3c(n2)CN(C2CN(C(=O)c4ccc5[nH]nnc5c4)CCC2O)C3)c1 (single isomer, unassigned) [Cpd 111, 1H-benzotriazol-5-yl-[3-[2-(3,5-dimethylanilino)-5,7-dihydropyrrolo[3,4-d]pyrimidin-6-yl]-4-hydroxy-1-piperidyl]methanone] | 500 to 1000 nM
Cc1cc(C)cc(Nc2ncc3c(n2)CCN(C2CN(C(=O)c4ccc5[nH]c(=O)oc5c4)C2)C3)c1 [Cpd 1, 6-[3-[2-(3,S-dimethylanilino)-7,8-dihydro-5H-pyrido[4,3-d]pyrimidin-6-yl]azetidine-1-carbonyl]-3H-1,3-benzoxazol-2-one] | 0.01 to 100 nM
Cc1cc(C)cc(Nc2ncc3c(n2)CN(C2CN(C(=O)c4ccc5[nH]c(=O)oc5c4)C2)C3)c1 [Cpd 3, 6-[3-[2-(3,5-dimethylanilino)-5,7-dihydropyrrolo[3,4-d]pyrimidin-6-yl]azetidine-1-carbonyl]-3H-1,3-benzoxazol-2-one] | 0.01 to 100 nM
Cc1cc(C)cc(Nc2ncc3c(n2)CN(C2CN(C(=O)c4cccc(C(=O)O)c4)C2)C3)c1 [Cpd 25, 3-[3-[2-(3,5-dimethylanilino)-5,7-dihydropyrrolo[3,4-d]pyrimidin-6-yl]azetidine-1-carbonyl]benzoic acid] | > 1000 nM
Cc1cc(C)nc(Nc2ncc3c(n2)CN(C2CCN(C(=O)c4ccc5[nH]c(=O)oc5c4)CC2)C3)c1 [Cpd 60, 6-[4-[2-[(4,6-dimethyl-2-pyridyl)amino]-5,7-dihydropyrrolo[3,4-d]pyrimidin-6-yl]piperidine-1-carbonyl]-3H-1,3-benzoxazol-2-one] | 100 to 500 nM
Cc1cc(C)cc(Nc2ncc3c(n2)CN(C2CCN(C(=O)c4cnc5[nH]nnc5c4)CC2)C3)c1 [Cpd 66, [4-[2-(3,5-dimethylanilino)-5,7-dihydropyrrolo[3,4-d]pyrimidin-6-yl]-1-piperidyl]-(3H-triazolo[4,5-b]pyridin-6-yl)methanone] | 500 to 1000 nM
Cc1cc(C)cc(Nc2ncc3c(n2)CN(C2CN(C(=O)c4cnc5nn[nH]c5c4)C2)C3)c1 [Cpd 67, [3-[2-(3,5-dimethylanilino)-5,7-dihydropyrrolo[3,4-d]pyrimidin-6-yl]azetidin-1-yl]-(1H-triazolo[4,5-b]pyridin-6-yl)methanone] | > 1000 nM
Cc1cc(C)cc(Nc2ncc3c(n2)CCCN(C2CCN(C(=O)c4cnc5[nH]nnc5c4)CC2)C3)c1 [Cpd 76, [4-[2-(3,5-dimethylanilino)-5,7,8,9-tetrahydropyrimido[5,4-c]azepin-6-yl]-1-piperidyl]-(3H-triazolo[4,5-b]pyridin-6-yl)methanone] | > 1000 nM
Cc1cc(C)cc(Nc2ncc3c(n2)CN(C2CN(C(=O)c4ccc5[nH]nnc5n4)C2)C3)c1 [Cpd 86, [3-[2-(3,5-dimethylanilino)-5,7-dihydropyrrolo[3,4-d]pyrimidin-6-yl]azetidin-1-yl]-(1H-triazolo[4,5-b]pyridin-5-yl)methanone] | 0.01 to 100 nM
Cc1cc(C)cc(Nc2ncc3c(n2)CCN(C2CCN(C(=O)c4ccc5[nH]nnc5c4)[C@@H](C)C2)C3)c1 (stereo partly drawn) [Cpd 96, 1H-benzotriazol-5-yl-[(2S)-4-[2-(3,5-dimethylanilino)-7,8-dihydro-5H-pyrido[4,3-d]pyrimidin-6-yl]-2-methyl-1-piperidyl]methanone] | 0.01 to 100 nM
Cc1cc(C)cc(Nc2ncc3c(n2)CCN([C@@H]2CCN(C(=O)c4ccc5[nH]nnc5c4)[C@H](C)C2)C3=O)c1 [Cpd 97, 6-[(2R,4R)-1-(1H-benzotriazole-5-carbonyl)-2-methyl-4-piperidyl]-2-(3,5-dimethylanilino)-7,8-dihydropyrido[4,3-d]pyrimidin-5-one] | 100 to 500 nM
Cc1cc(C)cc(Nc2ncc3c(n2)CN(C2CCN(C(=O)c4ccc5[nH]nnc5c4)C(C)(C)C2)C3)c1 (stereo not shown) [Cpd 100, 1H-benzotriazol-5-yl-[4-[2-(3,5-dimethylanilino)-5,7-dihydropyrrolo[3,4-d]pyrimidin-6-yl]-2,2-dimethyl-1-piperidyl]methanone] | 0.01 to 100 nM
Cc1cc(C)cc(Nc2ncc3c(n2)CN(C2CN(C(=O)c4ccc5[nH]nnc5c4)CC2(F)F)C3)c1 (stereo not shown) [Cpd 101, 1H-benzotriazol-5-yl-[4-[2-(3,5-dimethylanilino)-5,7-dihydropyrrolo[3,4-d]pyrimidin-6-yl]-3,3-difluoro-pyrrolidin-1-yl]methanone] | 100 to 500 nM
COC(=O)[C@@H]1C[C@H](N2Cc3cnc(Nc4cc(C)cc(C)c4)nc3C2)CCN1C(=O)c1ccc2[nH]nnc2c1 [Cpd 104, methyl (2S,4R)-1-(1H-benzotriazole-5-carbonyl)-4-[2-(3,5-dimethylanilino)-5,7-dihydropyrrolo[3,4-d]pyrimidin-6-yl]pipe ridine-2-carboxylate] | 0.01 to 100 nM
Cc1cc(C)cc(Nc2ncc3c(n2)CN(C2CCN(C(=O)c4ccc5[nH]cnc5c4)CC2)C3)c1 [Cpd 108, 1H-benzimidazol-5-yl-[4-[2-(3,5-dimethylanilino)-5,7-dihydropyrrolo[3,4-d]pyrimidin-6-yl]-1-piperidyl]methanone] | 500 to 1000 nM
Cc1cc(C)cc(Nc2ncc3c(n2)CN(C2CCN(C(=O)c4cc5nn[nH]c5cc4F)C(C)(C)C2)C3)c1 (stereo not shown) [Cpd 117, [4-[2-(3,5-dimethylanilino)-5,7-dihydropyrrolo[3,4-d]pyrimidin-6-yl]-2,2-dimethyl-1-piperidyl]-(6-fluoro-1H-benzotriazol-5-yl)methanone] | 0.01 to 100 nM
Cc1cc(C)cc(Nc2ncc3c(n2)CN(C2CCN(C(=O)c4ccc5oc(=O)[nH]c5c4)CC2)C3)c1 [Cpd 118, 5-[4-[2-(3,5-dimethylanilino)-5,7-dihydropyrrolo[3,4-d]pyrimidin-6-yl]piperidine-1-carbonyl]-3H-1,3-benzoxazol-2-one] | > 1000 nM
Cc1cc(C)cc(Nc2ncc3c(n2)CN([C@H]2CCN(C(=O)c4ccc(S(N)(=O)=O)cc4)[C@@H](C)C2)C3)c1 [Cpd 124, 4-[(2S,4S)-4-[2-(3,5-dimethylanilino)-5,7-dihydropyrrolo[3,4-d]pyrimidin-6-yl]-2-methyl-piperidine-1-carbonyl]benzenesulfonamide] | > 1000 nM
COc1cc(C)cc(Nc2ncc3c(n2)CN([C@@H]2CCN(C(=O)c4ccc5[nH]nnc5c4)[C@H](C)C2)C3)c1 [Cpd 125, 1H-benzotriazol-5-yl-[(2R,4R)-4-[2-(3-methoxy-5-methyl-anilino)-5,7-dihydropyrrolo[3,4-d]pyrimidin-6-yl]-2-methyl-1-piperidyl]methanone] | 0.01 to 100 nM

Results, then the molecule that gave them:

IC50 | SMILES
0.01 to 100 nM | COC(=O)[C@H]1CN(C(=O)c2ccc3[nH]nnc3c2)CC[C@@H]1N1Cc2cnc(Nc3cc(C)cc(C)c3)nc2C1 (single isomer, unassigned) [Cpd 136]
0.01 to 100 nM | CCOc1cc2[nH]nnc2cc1C(=O)N1CC[C@H](N2Cc3cnc(Nc4cc(C)cc(C)c4)nc3C2)C[C@H]1C (single isomer, unassigned) [Cpd 138]
0.01 to 100 nM | CCOc1cc2[nH]nnc2cc1C(=O)N1CC[C@@H](N2Cc3cnc(Nc4cc(C)cc(C)c4)nc3C2)C[C@H]1C (single isomer, unassigned) [Cpd 139]
0.01 to 100 nM | C[C@@H]1C[C@@H](N2Cc3cnc(Nc4ccc(OC(F)(F)F)cc4)nc3C2)CCN1C(=O)c1ccc2[nH]nnc2c1 (single isomer, unassigned) [Cpd 164]
0.01 to 100 nM | C[C@@H]1C[C@H](N2Cc3cnc(Nc4ccc(OC(F)(F)F)cc4)nc3C2)CCN1C(=O)c1ccc2[nH]nnc2c1 (single isomer, unassigned) [Cpd 169]
0.01 to 100 nM | Cc1cc(C)cc(Nc2ncc3c(n2)CN(C2(C)CCN(C(=O)c4ccc5[nH]nnc5c4)CC2)C3)c1 [Cpd 130, 1H-benzotriazol-5-yl-[4-[2-(3,5-dimethylanilino)-5,7-dihydropyrrolo[3,4-d]pyrimidin-6-yl]-4-methyl-1-piperidyl]methanone]
> 1000 nM | Cc1cc(C)cc(Nc2ncc3c(n2)CN([C@H]2CCN(C(=O)c4ccc(S(=O)(=O)NC(=O)C(C)C)cc4)[C@@H](C)C2)C3)c1 [Cpd 131, N-[4-[(2S,4S)-4-[2-(3,5-dimethylanilino)-5,7-dihydropyrrolo[3,4-d]pyrimidin-6-yl]-2-methyl-piperidine-1-carbonyl]phenyl]sulfonyl-2-methyl-propanamide]
> 1000 nM | Cc1cc(C)cc(Nc2ncc3c(n2)CN([C@H]2CCN(C(=O)c4ccc(C(=O)O)cc4)[C@@H](C)C2)C3)c1 [Cpd 132, 4-[(2S,4S)-4-[2-(3,5-dimethylanilino)-5,7-dihydropyrrolo[3,4-d]pyrimidin-6-yl]-2-methyl-piperidine-1-carbonyl]benzoic acid]
> 1000 nM | Cc1cc(C)cc(Nc2ncc3c(n2)CN([C@H]2CCN(C(=O)c4ccc(C(=O)NS(C)(=O)=O)cc4)[C@@H](C)C2)C3)c1 [Cpd 133, 4-[(2S,4S)-4-[2-(3,5-dimethylanilino)-5,7-dihydropyrrolo[3,4-d]pyrimidin-6-yl]-2-methyl-piperidine-1-carbonyl]-N-methylsulfonylbenzamide]
